Read-outs that look alike come from different tables or passages of the source.
Legend:
[1] = rabbit, in vivo
Description: The selected BDI-1 implants (from in-vitro release studies, FIG. 7) were sterilized, implanted in the capsular bag of rabbit's eyes. Two implants with different composition and dose were tested in-vivo in NZW rabbits to establish pharmacokinetics. Two rabbits were sacrificed at 2, 6, 10, 15 days and various tissue samples (aqueous humor, vitreous humor, IOL, iris/ciliary body and retina/choroid) were collected and samples were analyzed by a validated LC/MS/MS method.
A total of 8 animals (16 eyes) received the implant containing 120 μg of DXM.

[2] = rabbit, in vivo; remark: listed apart in the source
[3] = AVASTIN-loaded intraocular device, ocular tissue concentration by ELISA; assay type: in vivo, New Zealand white rabbits; conditions: 1 week post implantation of AVASTIN-loaded intraocular device
Description: Three intraocular devices were implanted into eyes of New Zealand white rabbits under general anesthesia after lens extraction (phacoemulsification technique). Two of the devices were loaded with AVASTIN® and one was loaded with the contrast agent Galbumin as a control. Proper intraocular device position was verified by MRI as well as clinical examination.
The rabbits were sacrificed and the eyes are removed and assayed after 1 week post implantation. AVASTIN® was detected by ELISA in the retina and vitreous at concentrations of 24-48 mcg/mL, and was not present in the control rabbit eye.

Molecule: C[C@@H]1C[C@H]2[C@@H]3CCC4=CC(=O)C=C[C@]4(C)[C@@]3(F)[C@@H](O)C[C@]2(C)[C@@]1(O)C(=O)CO [dexamethasone]
- direction of dexamethasone flow from the endocapsular space [1]: bidirectional from the endocapsular space into both the anterior and posterior chambers
- direction of dexamethasone flow from the endocapsular space [2]: bidirectional from the endocapsular space into both the anterior and posterior chambers

Molecule: bevacizumab [AVASTIN®]
- concentration in the retina and vitreous by ELISA [3]: 24000 to 48000 ng/mL
